{"source": "patent US4581359A", "about": "“Pharmacological treatments with N-7-substituted derivatives of theophylline” (priority 1984, dated 1986)", "key": {"in vivo": {"test": "in vivo", "conditions": "rabbit", "protocol": "All experiments of this example were performed using female New Zealand White rabbits. These rabbits (2.4-3.6 kg) were housed in a controlled environment and allowed free access to water and food.\nBefore dosing with drug the rabbit ear hair was clipped and treated with hair remover lotion (sold under the trademark NAIR, Carter-Wallace, Inc., New York, N.Y.), a catheter (Quick-Cath, 20 Ga, Travenol Laboratories, Inc., Deerfield, Ill.) and sterile intermittent infusion plug were then inserted in the rabbit's ear vein for infusion. […] For each separate administration of theophylline, a suitable amount of aminophylline (40 mg/kg) was dissolved in distilled water to make 10 ml injectable solution which was administered into a rabbit's ear vein as a continuous infusion over a period of 15 minutes.\nBlood samples were collected from an ear vein (in the opposite ear from the infusion) at predetermined time intervals. Before collecting each sample, the rabbit ear was treated topically with xylene to dilate the ear vein for convenient sample collection. Immediately after each blood sample was drawn, 0.4 ml of blood was transfered to the centrifuge tube and 0.4 ml of acetronitrile with appropriate internal standard was added to precipitate the protein and extract drug components. After vortexing well, the blood acetonitrile mixture was centrifuged at 3000×G for ten minutes, and 10 μl of supernatent solution was then injected into the HPLC.\nThe post infusion data of theophylline were fitted to a two-compartment open model using the same procedure as described above. Although samples were collected while infusion of dyphylline was continuing, only post infusion data were used for dyphylline pharmacokinetic analysis."}, "clinical": {"test": "clinical", "type": "in vivo", "conditions": "for Cmax: iv, 1000 mg, after 20-minute intravenous infusion of 1000 mg", "procedure": "To confirm the data shown in Table XI, dyphylline, 1000 mg, was administered to twelve healthy male volunteers as a zero-order infusion (50 mg/min) or as three conventional tablets (2×400 mg, 1×200 mg)."}, "[1]": {"test": "Single and combined intravenous methyl xanthines in rabbits: heart rate, deaths, plasma concentrations (Example 6)", "type": "in vivo, female rabbits", "conditions": "one rabbit each; normal about 220 bpm", "protocol": "T 40 mg/kg of aminophylline infused at the rate of 0.21 ml/min over 30\nT/D 40 mg/kg of aminophylline infused at the rate of 0.21 ml/min over 30\nT/E 40 mg/kg of aminophylline infused at the rate of 0.21 ml/min over 30\nT/P 40 mg/kg of aminophylline infused at the rate of 0.21 ml/min over 30"}, "[2]": {"test": "Literature: pharmacokinetics of dyphylline and related derivatives in humans", "conditions": "human, in vivo, from Simons et al., read-out: Total Vd", "excerpt": "Simons, et al., Allergy and Clin. Immunol. (1975) report the pharmacokinetics of dyphylline from seven different doses in seven patients and treat dyphylline as a one-compartment drug which means that Vc would be equal to Vd total since only one compartment is involved. This is, however, inconsistent with the data reported in the above-mentioned articles by Lawyer et al. Also, the data of Simons et al. (1975) can be used to generate the following lists wherein the estimated total volume of distribution of dyphylline (total Vd) is calculated from data presented by using the equation Vd=Dose/(Kel)(AUC): […]"}, "[3]": {"conditions": "cited from earlier work"}, "[4]": {"conditions": "cited from earlier work", "remark": "listed apart in the source"}, "[5]": {"test": "Concomitant dyphylline and aminophylline in two horses: plasma concentration, blood pressure, pulse (Example 3)", "conditions": "horse, plasma, iv, 20 mg/kg, dyphylline peak plasma concentration, 20 mg/kg bolus", "procedure": "Two horses were administered dyphylline and aminophylline concomitantly.\nThe second horse was given a bolus injection of dyphylline (20 mg/kg as 100 mg/ml solution in D5W) over 15 seconds into the jugular vein. Aminophylline infusion (10 mg/kg dissolved in one liter of D5W) was started immediately and administered over 20 minutes."}, "[6]": {"conditions": "intravenous, per day per 70 kg person, Zuidema"}}, "note": "Like-named read-outs stand apart in the source and are kept apart here."}
{"smiles": "Cn1c(=O)c2c(ncn2CC(O)CO)n(C)c1=O", "note": "(stereo not drawn) [dyphylline, dihydroxypropyl theophylline]", "values": [{"measurement": "effect of dyphylline on half-life of theophylline", "setting": "in vivo", "value": "does not appear to alter the half-life of theophylline"}, {"measurement": "plasma concentration of dyphylline not toxic in the presence of about 100 mcg/ml theophylline", "setting": "in vivo", "value": "about 600 mcg/ml"}, {"measurement": "Vd", "setting": "in vivo; iv, 666.7 mg/kg, average apparent volume of distribution of dyphylline administered with theophylline", "value": 0.41, "unit": "L/kg"}, {"measurement": "drug related toxicities", "setting": "clinical; human, in vivo", "value": "No subjects reported any drug related toxicities"}, {"measurement": "Cmax", "setting": "clinical; human, plasma, read-out: Maximum plasma concentration, average", "value": 30100, "unit": "ng/mL"}, {"measurement": "Cmax", "setting": "clinical; human, plasma, read-out: Maximum plasma concentration, range", "value": "18400 to 46800", "unit": "ng/mL"}, {"measurement": "Vd", "setting": "clinical; human, plasma, 1000 mg IV, twelve volunteers, standard deviation 0.08, read-out: average total volume of distribution, IV", "value": 0.78, "unit": "L/kg"}, {"measurement": "difference between predose and peak drug effects on blood pressure and heart rate", "setting": "clinical; α=0.05 level", "value": "not statistically significant"}, {"measurement": "heart rate, individual drug treatment", "setting": "[1]", "value": 76, "unit": "bpm"}, {"measurement": "Vd", "setting": "[2]; 10 mg/kg, 10 mg/kg alcoholic solution with glycerol-guaiacolate solution", "value": 0.77, "unit": "L/kg"}, {"measurement": "Vd", "setting": "[2]; 10 mg/kg, 10 mg/kg alcoholic solution", "value": 0.98, "unit": "L/kg"}, {"measurement": "Vd", "setting": "[2]; 10 mg/kg, 10 mg/kg aqueous", "value": 0.93, "unit": "L/kg"}, {"measurement": "Vd/F", "setting": "[2]; im, 5 mg/kg, 5 mg/kg intramuscular", "value": 0.58, "unit": "L/kg"}, {"measurement": "Vd/F", "setting": "[2]; im, 10 mg/kg, 10 mg/kg intramuscular", "value": 0.8, "unit": "L/kg"}, {"measurement": "Vd/F", "setting": "[2]; po, 5 mg/kg, 5 mg/kg tablet", "value": 0.58, "unit": "L/kg"}, {"measurement": "Vd/F", "setting": "[2]; po, 10 mg/kg, 10 mg/kg tablet", "value": 0.72, "unit": "L/kg"}, {"measurement": "lowest therapeutic response toxic level in steady state", "setting": "[3]; blood, calculated by Zuidema from data of Svedmyr", "value": 90, "unit": "µg/mL"}, {"measurement": "calculated probable dosage to produce 40 mcg/ml in blood", "setting": "[3]; [6]", "value": 13.7, "unit": "gm"}, {"measurement": "calculated probable dosage to produce 90 mcg/ml in blood", "setting": "[3]; [6]", "value": 30.8, "unit": "gm"}, {"measurement": "adverse effect", "setting": "[4]; 400 mg intravenous, about 48 mcg/ml, Zuidema 1981", "value": "no adverse effect"}, {"measurement": "plasma concentration", "setting": "[4]; 400 mg intravenous, very short time, Zuidema 1981", "value": "about 48 mcg/ml"}, {"measurement": "protein binding", "setting": "[4]; Gisclon et al.", "value": "may bind nonlinearly to protein"}, {"measurement": "intravenous dyphylline accounted for in the urine", "setting": "[4]; Lawyer", "value": "forty-four"}, {"measurement": "peak plasma concentration", "setting": "[4]; intravenous over ten minutes, one patient, Lawyer", "value": 17.4, "unit": "µg/mL"}, {"measurement": "conversion to theophylline in the body", "setting": "[4]; literature", "value": "not converted to theophylline in the body"}, {"measurement": "tissue distribution", "setting": "[4]; literature", "value": "penetrate the central nervous system, to infiltrate heart tissue and to distribute to lung tissue"}, {"measurement": "initial distribution volume", "setting": "[4]; person, 73 kg, Lawyer", "value": 26.2, "unit": "L"}, {"measurement": "total or steady state volume of distribution", "setting": "[4]; person, 73 kg, Lawyer", "value": 32.1, "unit": "L"}, {"measurement": "Cmax", "setting": "[5]; first value, presumably first horse", "value": 46000, "unit": "ng/mL"}, {"measurement": "Cmax", "setting": "[5]; second value, presumably second horse", "value": 88000, "unit": "ng/mL"}]}
